In US20040208783A1, “Process for the chemical and thermal disinfection” (priority 2003, published 2004):

Assays:
Type in all cases: cell-based
Aspergillus niger = assay: Quantitative suspension test, reduction factors (Test 1)
Method: (§1) Reduction factors were obtained with various solutions for use (SA=Staphylococcus aureus, PA=Pseudomonas aeruginosa, EC=Escherichia coli, CA=Candida albicans, AN=Aspergillus niger, MT=Mycobacterium terrae), initial microbe count 0.8−5×10^9/ml, for CA 2×10^7/ml, neutralizer Tryp-NaCl-TLSH (No. 22). Concerning the activity on Mycobacterium terrae, cf.
(§2) […] After acting for times of 5, 15, 30 and 60 minutes, 1 ml samples of the disinfectant/microbe mixture are taken and transferred into 9 ml of inactivation liquid (0.1% tryptone+0.85% NaCl in double-distilled water+inactivators). After a contact time not exceeding 30 minutes in the inactivation liquid, dilutions (10^−2 and 10^−4 in 0.1% tryptone+0.85% NaCl in double-distilled water) are made up. 0.1 ml samples of the inactivation liquid and the two dilutions are then transferred by spatula onto 3 CSA plates for each. As a control, the respective test microbe suspension is mixed with 10 ml of WSH in place of disinfectant. Subcultures are to be set up from this batch in the same way in parallel with the corresponding action times.
(§3) All subcultures are incubated at 37° C. for 48 hours, in the case of Candida albicans at 37° C. for 72 hours, and the colonies are counted. The reduction is calculated as follows: CFU between 20 and 300 per CSA plate are to be evaluated. After determination of the arithmetic mean of three values, the disinfectant effect (GRt) per unit time is calculated from the formula GRt=logCFU(co) minus logCFU(D) in which CFU(co) is the number of CFU per ml without exposure to the product, and CFU(D) is the number of CFU per ml after exposure to the product.

Candida albicans = assay: as above
Method: as §1, §2, §3

Escherichia coli = assay: as above
Method: as §1, §2, §3

Pseudomonas aeruginosa = assay: as above
Method: as §1, §2, §3

Staphylococcus aureus = assay: as above
Method: as §1, §2, §3

[1] = tested on: Mycobacterium terrae (ATCC15755); assay: Mycobacterium terrae quantitative suspension test without stress (Test 2); details: for Reduction factor: 0.1%
[2] = tested on: bacteria, fungi and mycobacteria; assay: Quantitative suspension tests, summary of activity in words

## CCCCC(CC)COCC(O)CO (centres unmarked) [SC 50, 1-(2-Ethylhexyl)glycerol ether]
Aspergillus niger; 0.05%, 30° C., 15′
  Reduction factor: 0.08
Aspergillus niger; 0.05%, 30° C., 30′
  Reduction factor: 0.70
Aspergillus niger; 0.05%, 30° C., 60′
  Reduction factor: 0.60
Aspergillus niger; 0.05%, 50° C., 15′
  Reduction factor: 0.12
Aspergillus niger; 0.05%, 50° C., 30′
  Reduction factor: 0.12
Aspergillus niger; 0.05%, 50° C., 60′
  Reduction factor: −0.12
Aspergillus niger; 0.05%, room temperature, 15′
  Reduction factor: 0.30
Aspergillus niger; 0.05%, room temperature, 30′
  Reduction factor: −0.10
Aspergillus niger; 0.05%, room temperature, 60′
  Reduction factor: 0.22
Aspergillus niger; 0.1%, 30° C., 15′
  Reduction factor: 0.30
Aspergillus niger; 0.1%, 30° C., 30′
  Reduction factor: 0.70
Aspergillus niger; 0.1%, 30° C., 60′
  Reduction factor: 0.60
Aspergillus niger; 0.1%, 50° C., 15′
  Reduction factor: −0.10
Aspergillus niger; 0.1%, 50° C., 30′
  Reduction factor: 0.30
Aspergillus niger; 0.1%, 50° C., 60′
  Reduction factor: 0.18
Aspergillus niger; 0.1%, room temperature, 15′
  Reduction factor: −0.35
Aspergillus niger; 0.1%, room temperature, 30′
  Reduction factor: −0.10
Aspergillus niger; 0.1%, room temperature, 60′
  Reduction factor: 0.40
Candida albicans; 0.05%, 30° C., 15′
  Reduction factor: 0.00
Candida albicans; 0.05%, 30° C., 30′
  Reduction factor: 0.00
Candida albicans; 0.05%, 30° C., 60′
  Reduction factor: 0.00
Candida albicans; 0.05%, 40° C., 15′
  Reduction factor: 0.54
Candida albicans; 0.05%, 40° C., 30′
  Reduction factor: 0.45
Candida albicans; 0.05%, 40° C., 60′
  Reduction factor: 0.59
Candida albicans; 0.05%, 50° C., 15′
  Reduction factor: 0.00
Candida albicans; 0.05%, 50° C., 30′
  Reduction factor: 0.00
Candida albicans; 0.05%, 50° C., 60′
  Reduction factor: 1.08
Candida albicans; 0.05%, room temperature, 15′
  Reduction factor: 0.00
Candida albicans; 0.05%, room temperature, 30′
  Reduction factor: 0.00
Candida albicans; 0.05%, room temperature, 60′
  Reduction factor: 0.00
Candida albicans; 0.1%, 30° C., 15′
  Reduction factor: 0.10
Candida albicans; 0.1%, 30° C., 30′
  Reduction factor: −0.08
Candida albicans; 0.1%, 30° C., 60′
  Reduction factor: 0.64
Candida albicans; 0.1%, 40° C., 15′
  Reduction factor: 0.55
Candida albicans; 0.1%, 40° C., 30′
  Reduction factor: 0.46
Candida albicans; 0.1%, 40° C., 60′
  Reduction factor: 0.65
Candida albicans; 0.1%, 50° C., 15′
  Reduction factor: 1.07
Candida albicans; 0.1%, 50° C., 30′
  Reduction factor: 1.53
Candida albicans; 0.1%, 50° C., 60′
  Reduction factor: 4.20
Candida albicans; 0.1%, room temperature, 15′
  Reduction factor: 0.00
Candida albicans; 0.1%, room temperature, 30′
  Reduction factor: 0.00
Candida albicans; 0.1%, room temperature, 60′
  Reduction factor: 0.00
Escherichia coli; 0.05%, 30° C., 15′
  Reduction factor: 0.13
Escherichia coli; 0.05%, 30° C., 30′
  Reduction factor: 0.25
Escherichia coli; 0.05%, 30° C., 60′
  Reduction factor: 0.36
Escherichia coli; 0.05%, 40° C., 15′
  Reduction factor: 0.00
Escherichia coli; 0.05%, 40° C., 30′
  Reduction factor: 0.00
Escherichia coli; 0.05%, 40° C., 60′
  Reduction factor: 0.00
Escherichia coli; 0.05%, 50° C., 15′
  Reduction factor: 1.17
Escherichia coli; 0.05%, 50° C., 30′
  Reduction factor: 1.70
Escherichia coli; 0.05%, 50° C., 60′
  Reduction factor: 2.85
Escherichia coli; 0.05%, room temperature, 15′
  Reduction factor: 0.00
Escherichia coli; 0.05%, room temperature, 30′
  Reduction factor: 0.43
Escherichia coli; 0.05%, room temperature, 60′
  Reduction factor: 0.25
Escherichia coli; 0.1%, 30° C., 15′
  Reduction factor: 0.54
Escherichia coli; 0.1%, 30° C., 30′
  Reduction factor: 0.58
Escherichia coli; 0.1%, 30° C., 60′
  Reduction factor: 1.15
Escherichia coli; 0.1%, 40° C., 15′
  Reduction factor: 1.84
Escherichia coli; 0.1%, 40° C., 30′
  Reduction factor: 3.27
Escherichia coli; 0.1%, 40° C., 60′
  Reduction factor: 3.46
Escherichia coli; 0.1%, 50° C., 15′
  Reduction factor: 3.74
Escherichia coli; 0.1%, 50° C., 30′
  Reduction factor: 4.95
Escherichia coli; 0.1%, 50° C., 60′
  Reduction factor: 4.90
Escherichia coli; 0.1%, room temperature, 15′
  Reduction factor: 0.00
Escherichia coli; 0.1%, room temperature, 30′
  Reduction factor: 0.54
Escherichia coli; 0.1%, room temperature, 60′
  Reduction factor: 0.50
Pseudomonas aeruginosa; 0.05%, 30° C., 15′
  Reduction factor: 0.00
Pseudomonas aeruginosa; 0.05%, 30° C., 30′
  Reduction factor: 0.00
Pseudomonas aeruginosa; 0.05%, 30° C., 60′
  Reduction factor: 0.00
Pseudomonas aeruginosa; 0.05%, 40° C., 15′
  Reduction factor: 0.00
Pseudomonas aeruginosa; 0.05%, 40° C., 30′
  Reduction factor: 0.00
Pseudomonas aeruginosa; 0.05%, 40° C., 60′
  Reduction factor: 0.00
Pseudomonas aeruginosa; 0.05%, 50° C., 15′
  Reduction factor: 0.00
Pseudomonas aeruginosa; 0.05%, 50° C., 30′
  Reduction factor: 0.85
Pseudomonas aeruginosa; 0.05%, 50° C., 60′
  Reduction factor: 0.96
Pseudomonas aeruginosa; 0.05%, room temperature, 15′
  Reduction factor: 0.00
Pseudomonas aeruginosa; 0.05%, room temperature, 30′
  Reduction factor: 0.00
Pseudomonas aeruginosa; 0.05%, room temperature, 60′
  Reduction factor: 0.00
Pseudomonas aeruginosa; 0.1%, 30° C., 15′
  Reduction factor: 0.00
Pseudomonas aeruginosa; 0.1%, 30° C., 30′
  Reduction factor: 0.00
Pseudomonas aeruginosa; 0.1%, 30° C., 60′
  Reduction factor: 1.01
Pseudomonas aeruginosa; 0.1%, 40° C., 15′
  Reduction factor: 1.03
Pseudomonas aeruginosa; 0.1%, 40° C., 30′
  Reduction factor: 1.10
Pseudomonas aeruginosa; 0.1%, 40° C., 60′
  Reduction factor: 1.14
Pseudomonas aeruginosa; 0.1%, 50° C., 15′
  Reduction factor: 3.55
Pseudomonas aeruginosa; 0.1%, 50° C., 30′
  Reduction factor: 3.50
Pseudomonas aeruginosa; 0.1%, 50° C., 60′
  Reduction factor: 4.00
Pseudomonas aeruginosa; 0.1%, room temperature, 15′
  Reduction factor: 0.00
Pseudomonas aeruginosa; 0.1%, room temperature, 30′
  Reduction factor: 0.00
Pseudomonas aeruginosa; 0.1%, room temperature, 60′
  Reduction factor: 0.00
Staphylococcus aureus; 0.05%, 30° C., 15′
  Reduction factor: 0.00
Staphylococcus aureus; 0.05%, 30° C., 30′
  Reduction factor: 0.00
Staphylococcus aureus; 0.05%, 30° C., 60′
  Reduction factor: 0.00
Staphylococcus aureus; 0.05%, 40° C., 15′
  Reduction factor: 0.70
Staphylococcus aureus; 0.05%, 40° C., 30′
  Reduction factor: 0.88
Staphylococcus aureus; 0.05%, 40° C., 60′
  Reduction factor: 0.57
Staphylococcus aureus; 0.05%, 50° C., 15′
  Reduction factor: 0.58
Staphylococcus aureus; 0.05%, 50° C., 30′
  Reduction factor: 0.81
Staphylococcus aureus; 0.05%, 50° C., 60′
  Reduction factor: 0.29
Staphylococcus aureus; 0.05%, room temperature, 15′
  Reduction factor: 0.00
Staphylococcus aureus; 0.05%, room temperature, 30′
  Reduction factor: 0.00
Staphylococcus aureus; 0.05%, room temperature, 60′
  Reduction factor: 0.00
Staphylococcus aureus; 0.1%, 30° C., 15′
  Reduction factor: 0.78
Staphylococcus aureus; 0.1%, 30° C., 30′
  Reduction factor: 0.53
Staphylococcus aureus; 0.1%, 30° C., 60′
  Reduction factor: 0.35
Staphylococcus aureus; 0.1%, 40° C., 15′
  Reduction factor: 0.97
Staphylococcus aureus; 0.1%, 40° C., 30′
  Reduction factor: 1.56
Staphylococcus aureus; 0.1%, 40° C., 60′
  Reduction factor: 1.45
Staphylococcus aureus; 0.1%, 50° C., 15′
  Reduction factor: 2.44
Staphylococcus aureus; 0.1%, 50° C., 30′
  Reduction factor: 4.93
Staphylococcus aureus; 0.1%, 50° C., 60′
  Reduction factor: 4.70
Staphylococcus aureus; 0.1%, room temperature, 15′
  Reduction factor: 0.00
Staphylococcus aureus; 0.1%, room temperature, 30′
  Reduction factor: 0.00
Staphylococcus aureus; 0.1%, room temperature, 60′
  Reduction factor: 0.96
[1]; 0.05% by weight, 50° C., 60 minutes
  Activity on Mycobacterium terrae (in words): neither 0.05% by weight SC 50 nor 0.75% by weight POE, even acting for a time of 60 minutes, display any activity
[1]; 30° C., 15′
  Reduction factor: 0.00
[1]; 30° C., 30′
  Reduction factor: 0.00
[1]; 30° C., 60′
  Reduction factor: 0.00
[1]; 40° C., 15′
  Reduction factor: 0.00
[1]; 40° C., 30′
  Reduction factor: 0.00
[1]; 40° C., 60′
  Reduction factor: 0.00
[1]; 50° C., 15′
  Reduction factor: 3.10
[1]; 50° C., 30′
  Reduction factor: 3.34
[1]; 50° C., 60′
  Reduction factor: 3.48
[1]; room temperature, 15′
  Reduction factor: 0.00
[1]; room temperature, 30′
  Reduction factor: 0.00
[1]; room temperature, 60′
  Reduction factor: 0.00
[2]; 0.1% by weight solution, 50° C.
  Activity (in words): broad activity on gram-positive and gram-negative bacteria, yeasts and mycobacteria
[2]; 0.1% by weight, low temperature
  Activity (in words): virtually no antimicrobial activity
[2]; above 25° C.
  Activity on bacteria (gram-positive and gram-negative) and mycobacteria (in words): particularly active
[2]; use concentration 0.1% by weight
  Activity on yeasts (e.g. Candida albicans) and moulds (e.g. Aspergillus niger) (in words): still requires improvement
